Source: patent publication US9045531B2, “HLA-binding peptide, precursor thereof, and DNA fragment and recombinant vector coding for said HLA-binding peptide” (NEC CORPORATION, priority 2006, dated 2015)
No end group written: not given here.

Key:
[1] = system: HLA-A24 molecule (product of the HLA-A*2402 gene); experiment: Experiment of binding peptide to HLA-A2402 molecule (C1R-A24 cells, flow cytometry); parameters: species or system human; details: HLA-A24 (HLA-A*2402)
Protocol: The ability of a peptide to bind to an HLA-A24 molecule, which is a product of the HLA-A*2402 gene, was measured using C1R-A24 cells expressing the HLA-A24 gene (cells produced by Professor Masafumi Takiguchi, Kumamoto University being supplied with permission).
After neutralization, purified β2m was added to C1R-A24 cells, the obtained product was added to serial dilutions of a peptide, and incubated on ice for 4 hours.
Subsequently, the MHC-pep count per C1R-A24 cell (proportional to the strength of fluorescence of the above-mentioned fluorescent antibody) was quantitatively measured using a FACScan fluorescence-activated cell sorter (Becton Dickinson Biosciences). A binding dissociation constant Kd value between the HLA-A24 molecule and the peptide was calculated from the average strength of fluorescence per cell by a published method (Udaka et al., Immunogenetics, 51, 816-828, 2000).

[2] = system: human HLA-A type molecule; experiment: Binding experiments, summary statement for HLA-A type molecules; details: summary of the binding experiments
Protocol: The ability of a peptide to bind to an HLA-A2 molecule, which is a product of the HLA-A*0201 gene, was measured using strain JY cells (obtained from ATCC (American Type Culture Collection)) expressing the HLA-A*0201.
The ability of a peptide to bind to an HLA-A2 molecule, which is a product of the HLA-A*0206 gene, was measured using RA2.6 cells (cell strain newly prepared in Kochi University) in which cDNA of the HLA-A*0206 gene is expressed in RAMS cells, which are mouse TAP peptide transporter deficient cells.

Sequence: DMNNEGSYF [SEQ ID NO: 18]
- Binding Experiment Data (−log Kd value) [1]: 5.374
- binding to a human HLA-A type molecule (result in words) [2]: experimentally confirmed to bind

Sequence: RMVSGIGRF [SEQ ID NO: 15]
- Binding Experiment Data (−log Kd value) [1]: 7.436
- binding to a human HLA-A type molecule (result in words) [2]: experimentally confirmed to bind

Sequence: IYKRRDGKW [SEQ ID NO: 17]
- Binding Experiment Data (−log Kd value) [1]: 7.326
- binding to a human HLA-A type molecule (result in words) [2]: experimentally confirmed to bind

Sequence: FQGRGVFEL [SEQ ID NO: 48]
- binding to a human HLA-A type molecule (result in words) [2]: experimentally confirmed to bind

Sequence: ATNPIVPSF [SEQ ID NO: 6]
- Binding Experiment Data (−log Kd value) [1]: 7.564
- binding to a human HLA-A type molecule (result in words) [2]: experimentally confirmed to bind

Sequence: WMACHSAAF [SEQ ID NO: 1]
- binding to a human HLA-A type molecule (result in words) [2]: experimentally confirmed to bind

Sequence: LQNSQVFSL [SEQ ID NO: 49]
- binding to a human HLA-A type molecule (result in words) [2]: experimentally confirmed to bind

Sequence: IYRRRDGKW [SEQ ID NO: 10]
- Binding Experiment Data (−log Kd value) [1]: 7.497
- binding to a human HLA-A type molecule (result in words) [2]: experimentally confirmed to bind

Sequence: YLEENPSAG [SEQ ID NO: 26]
- binding to a human HLA-A type molecule (result in words) [2]: experimentally confirmed to bind

Sequence: SLPFERATI [SEQ ID NO: 11]
- Binding Experiment Data (−log Kd value) [1]: 7.719
- binding to a human HLA-A type molecule (result in words) [2]: experimentally confirmed to bind

Sequence: ATSPIVPSF [SEQ ID NO: 9]
- Binding Experiment Data (−log Kd value) [1]: 7.802
- binding to a human HLA-A type molecule (result in words) [2]: experimentally confirmed to bind

Sequence: IFLARSALI [SEQ ID NO: 4]
- Binding Experiment Data (−log Kd value) [1]: 8.012
- binding to a human HLA-A type molecule (result in words) [2]: experimentally confirmed to bind

Sequence: VGIDPFRLL [SEQ ID NO: 12]
- Binding Experiment Data (−log Kd value) [1]: 5.12
- binding to a human HLA-A type molecule (result in words) [2]: experimentally confirmed to bind

Sequence: IYKRREGKW [SEQ ID NO: 13]
- Binding Experiment Data (−log Kd value) [1]: 7.25
- binding to a human HLA-A type molecule (result in words) [2]: experimentally confirmed to bind

Sequence: YLEEHPSAG [SEQ ID NO: 21]
- binding to a human HLA-A type molecule (result in words) [2]: experimentally confirmed to bind

Sequence: LILYDKEEI [SEQ ID NO: 51]
- binding to a human HLA-A type molecule (result in words) [2]: experimentally confirmed to bind

Sequence: RLIQNSITI [SEQ ID NO: 3]
- binding to a human HLA-A type molecule (result in words) [2]: experimentally confirmed to bind

Sequence: RLLQNSQVF [SEQ ID NO: 2]
- Binding Experiment Data (−log Kd value) [1]: 6.915
- binding to a human HLA-A type molecule (result in words) [2]: experimentally confirmed to bind

Sequence: NLPFERATI [SEQ ID NO: 8]
- Binding Experiment Data (−log Kd value) [1]: 7.764

Sequence: RMVGGIGRF [SEQ ID NO: 14]
- Binding Experiment Data (−log Kd value) [1]: 7.543
- binding to a human HLA-A type molecule (result in words) [2]: experimentally confirmed to bind

Sequence: ATNPVVPSF [SEQ ID NO: 7]
- Binding Experiment Data (−log Kd value) [1]: 7.808
- binding to a human HLA-A type molecule (result in words) [2]: experimentally confirmed to bind

Sequence: DMSNEGSYF [SEQ ID NO: 16]
- binding to a human HLA-A type molecule (result in words) [2]: experimentally confirmed to bind

Sequence: GQISVQPTF [SEQ ID NO: 5]
- Binding Experiment Data (−log Kd value) [1]: 7.191
- binding to a human HLA-A type molecule (result in words) [2]: experimentally confirmed to bind

Sequence: LIFLARSAL [SEQ ID NO: 52, LIFLARSAL]
- binding to a human HLA-A type molecule (result in words) [2]: experimentally confirmed to bind

Sequence: NLPFERATI [SEQ ID NO: 25]
- binding to a human HLA-A type molecule (result in words) [2]: experimentally confirmed to bind
